System: TNF-α and IL-1 secretion
Assay: investigated assays, not said which: TNF-α and IL-1 secretion in human PBMC, in mouse peritoneal macrophages, LPS-induced secretion in mice, writhing assay, LPS-induced shock in mice
Conditions: active means: PBMC IC50 20 μM or lower; mouse macrophages IC50 10 μM or lower; 30% or more TNF-α inhibition at 10 mg/kg; analgetic activity as acetylsalicylic acid or better; survival 40% or more at 30 mg/kg
Procedure: The inhibitory action of the present compounds upon TNF-α and IL-1 secretion was determined by the following in vitro and in vivo experiments:
Determination of TNF-α and IL-1 Secretion in Human Peripheral Blood Mononuclear Cells in vitro
Human peripheral blood mononuclear cells (PBMC) were prepared from heparinized whole blood after separating PBMC on Ficoll-Paque™Plus (Amersham-Pharmacia). […] The IL-1 level was determined in an assay under the same conditions and with the same number of cells and the same concentration of the stimulus by ELISA procedure (R&D Systems). The percentage of inhibition of TNF-α or IL-1 production was calculated by the equation: % inhibition=[1−(TS−NC)/(PC−NC)]*100. […]
In order to obtain peritoneal macrophages, Balb/C mouse strain males, age 8 to 12 weeks, were injected i.p. with 300 μg of zymosan (SIGMA) dissolved in a phosphate buffer (PBS) in a total volume of 0.1 ml/mouse. […] The TNF-α level in the cell supernatant was determined by ELISA procedure (R&D Systems, Biosource). IL-1 level was determined in an assay, identical to an assay for TNF-a by ELISA procedure (R&D Systems). The percentage of inhibition of TNF-α or IL-1 production was calculated by the equation: % inhibition=[1−(TS−NC)/(PC−NC)]*100. […]

Structure (SMILES)	activity in the investigated assays
CCOC(=O)c1cc2c(s1)-c1ccc(OCCN3CCCC3)cc1Oc1ccccc1-2 [Example 4, 10-(2-Pyrrolidin-1-yl-ethoxy)-8-oxa-1-thia-dibenzo[e,h]azulene-2-carboxylic acid ethyl ester]	activity in at least two investigated assays
CN(C)CCCOCc1cc2c(s1)-c1ccc(OCCCN(C)C)cc1Oc1ccccc1-2 [Example 14, {3-[2-(3-Dimethylamino-propoxymethyl)-8-oxa-1-thia-dibenzo[e,h]azulene-10-yloxy]-propyl}-dimethyl-amine]	activity in at least two investigated assays

Source: patent US20060069149A1, “Thiadibenzoazulene derivatives for the treatment of inflammatory diseases” (Pliva-Istrazivacki Institut d.o.o., priority 2003, published 2006)
